Key:
recombinant human PAI-1 [1] = target: T1, recombinant human PAI-1 (Homo sapiens, UniProt P05121); experiment: biochemical
Method: <Compotion of pH7.4 HEPES Buffer>
(§1) • 0.1 M HEPES • 0.1 M NaCl • […] • 0.1% Polyethylene glycol 8,000 (Hampton Research Corporation) • 2 mM Dimethyldecylphoshine oxide [Apo-10] (Fluka Corporation) [Results]

[2] = system: Crlj:CD(SD) rat AV shunt model; experiment: Test Example 5: anti-thrombotic activity (rat AV shunt model); type: in vivo; settings: oral, 10 mg/kg/day for 4 days, mean ± S.E., vehicle 72.7 ± 2.7, *p < 0.05
Method: The administration on the 4th day was carried out about 1 hour before the following perfusion start. Put a 6.5 cm silk thread (Matsuda Ika Kogyou; […] On the connected part where the silk thread is through, parafilm was wrapped around to avoid blood leakage. […] Saline was filled in the above catheter, and both ends of the catheter were inserted in right carotid artery and […], respectively, and blood was circulated. 30 minutes later, the catheter was pinched with forceps to stop blood flow, and tube parts where the silk thread is through were cut and removed. The silk thread was carefully removed from the tubes, remaining wet weight was weighed after removing the liquid phase by filter paper, and further subtraction of the weight of the silk thread, gives the thrombus weight. For the thrombus weight in each group, an average value±standard error (S.E.) was calculated. […] For the test, the SAS System Release 8.2 (TS2M0) for Windows (Registered Trademark) (SAS Institute Inc.) and its coorperative system […] Ver. 7.10 (Arm Systex Co. Ltd.) were employed.

recombinant rat PAI-1 = target: T2, recombinant rat PAI-1 (Rattus norvegicus, UniProt P20961); experiment: biochemical
T2 sequence (P20961 24-402): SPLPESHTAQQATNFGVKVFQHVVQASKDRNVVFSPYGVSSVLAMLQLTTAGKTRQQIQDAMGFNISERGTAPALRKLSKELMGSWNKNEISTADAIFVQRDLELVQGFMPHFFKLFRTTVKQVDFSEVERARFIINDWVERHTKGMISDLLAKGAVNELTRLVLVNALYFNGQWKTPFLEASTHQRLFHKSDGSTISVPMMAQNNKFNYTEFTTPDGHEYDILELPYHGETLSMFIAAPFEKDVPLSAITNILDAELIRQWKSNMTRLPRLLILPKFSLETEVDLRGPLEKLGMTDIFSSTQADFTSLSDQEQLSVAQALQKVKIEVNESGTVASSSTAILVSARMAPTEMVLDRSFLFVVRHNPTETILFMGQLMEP
Method: as §1

recombinant human PAI-1 [3] = target: T1, recombinant human PAI-1; experiment: Test Example 1: human PAI-1 inhibitory activity (tPA fluorogenic substrate, pH7.5 Tris buffer); type: biochemical; parameters: purchased Molecular Innovations, Inc; settings: for Inhibition Rate of Human PAI-1 Activity (%): Tris buffer pH7.5
Method: In a 96-well multiplate (black), 1.5 μl of DMSO solution of the present application compound prepared to achieve 80-fold the test concentration (=the final concentration when fluorogenic substrate is added) was diluted with 52.5 μl of pH7.5 Tris buffer. […] Furthermore, 30 μl of 800 IU/ml two-chain tPA (Activity Standard; American diagnostics, inc.) prepared by Tris buffer was added, and the mixed solution was incubated for 15 minutes at room temperature. To this, 30 μl of 400 μM fluorogenic substrate (Pyr-Gly-Arg-MCA; Peptide Institute, Inc.) for tPA prepared by Tris buffer was added and reacted for 30 minutes at room temperature.
<Composition of pH7.5 Tris Buffer)

[4] = read-out: Inhibition Rate of Rat PAI-1 Activity (%)
[5] = pH 7.5, read-out: Inhibition Rate of Human PAI-1 Activity (%)

T1 sequence (P05121 24-402): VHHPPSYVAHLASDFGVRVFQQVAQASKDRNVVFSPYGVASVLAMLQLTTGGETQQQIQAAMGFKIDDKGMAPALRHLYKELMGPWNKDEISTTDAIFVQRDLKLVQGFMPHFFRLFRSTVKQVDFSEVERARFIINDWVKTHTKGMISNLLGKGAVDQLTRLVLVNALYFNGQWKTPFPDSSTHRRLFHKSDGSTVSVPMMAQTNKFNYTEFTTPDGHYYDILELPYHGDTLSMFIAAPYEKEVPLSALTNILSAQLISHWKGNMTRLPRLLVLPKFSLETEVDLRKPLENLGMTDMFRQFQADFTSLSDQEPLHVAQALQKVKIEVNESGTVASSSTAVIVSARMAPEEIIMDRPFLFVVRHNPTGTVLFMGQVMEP

SMILES | Inhibition Rate of Human PAI-1 Activity (%) (recombinant human PAI-1 [3]; compound 5 μM) | Inhibition Rate of Human PAI-1 Activity (%) (recombinant human PAI-1 [3]; compound 10 μM) | Inhibition Rate of Human PAI-1 Activity (%) (recombinant human PAI-1 [3]; compound 25 μM) | further results
CC(C)(C)c1ccc(COc2ccc(-c3ccc(OC(F)(F)F)cc3)cc2CCC(=O)O)cc1 [Compound 5, 3-{4-[4-(tert-butyl)benzyloxy]-4′-(trifluoromethoxy)biphenyl-3-yl}propanoic acid] |  |  |  | IC50 (recombinant human PAI-1 [1]): 1270 nM; Thrombus Weight (mg) [2]: 57.5 ± 5.0* mg; IC50 (recombinant rat PAI-1): 2800 nM
CC(C)(C)c1ccc(COc2ccc(-c3ccc(OC(F)(F)F)cc3)cc2CC(=O)O)cc1 [Compound 9, {4-[4-(tert-butyl)benzyloxy]-4′-(trifluoromethoxy)biphenyl-3-yl}acetic acid] |  |  |  | IC50 (recombinant human PAI-1 [1]): 1300 nM; IC50 (recombinant rat PAI-1): 2070 nM
CC(C)(C)c1ccc(Oc2ccc(-c3ccc(OC(F)(F)F)cc3)cc2CCC(=O)O)cc1 [Compound 13, 3-{4-[4-(tert-butyl)phenoxy]-4′-(trifluoromethoxy)biphenyl-3-yl}propanoic acid] |  |  |  | IC50 (recombinant human PAI-1 [1]): 1170 nM; IC50 (recombinant rat PAI-1): 2170 nM; inhibition at 10 µM (recombinant rat PAI-1; [4]): > 99%
O=C(O)CCc1cc(-c2ccccc2)ccc1OCc1ccc(OC(F)(F)F)cc1 [Compound 58, 3-{4-[4-(trifluoromethoxy)benzyloxy]biphenyl-3-yl}propanoic acid] | 19 | 32 | 74 | 
CC(C)(C)c1ccc(COc2ccc(-c3ccc(OC(F)(F)F)cc3)cc2N(Cc2ccccc2)C(=O)C(=O)O)cc1 [Compound 59, N-benzyl-N-{4-[4-(tert-butyl)benzyloxy]-4′-(trifluoromethoxy)biphenyl-3-yl}oxamic acid] |  |  |  | inhibition at 3 µM (recombinant human PAI-1 [1]; pH 7.4, read-out: Inhibition Rate of Human PAI-1 Activity (%)): > 99%; inhibition at 3 µM (recombinant rat PAI-1; [4]): > 99%; inhibition at 10 µM (recombinant rat PAI-1; [4]): > 99%; inhibition at 25 µM (recombinant human PAI-1 [3]; [5]): 81%
COc1ccccc1-c1ccc(OCc2ccc(C(C)(C)C)cc2)c(/C=C/C(=O)O)c1 [Compound 61, (E)-3-{4-[4-(tert-butyl)benzyloxy]-2′-methoxybiphenyl-3-yl}propenoic acid] | 21 | 46 | 95 | 
COc1ccccc1-c1ccc(OCc2ccc(C(C)(C)C)cc2)c(CCC(=O)O)c1 [Compound 62, 3-{4-[4-(tert-butyl)benzyloxy]-2′-methoxybiphenyl-3-yl}propanoic acid] | 22 | 47 | 91 | 
COc1ccc(COc2ccc(-c3ccc(OC(F)(F)F)cc3)cc2CCC(=O)O)cc1 [Compound 66, 3-[4-(4-methoxybenzyloxy)-4′-(trifluoromethoxy)biphenyl-3-yl]propanoic acid] | 15 | 35 | 25 | 
CC(C)(C)c1ccc(COc2ccc(-c3ccc(OC(F)(F)F)cc3)cc2CCc2nnn[nH]2)cc1 [Compound 69, 5-{2-{4-[4-(tert-butyl)benzyloxy]-4′-(trifluoromethoxy)biphenyl-3-yl}ethyl}-1H-tetrazole] |  |  |  | inhibition at 10 µM (recombinant human PAI-1 [3]; [5]): 34%; inhibition at 25 µM (recombinant human PAI-1 [3]; [5]): > 99%
CC(C)(C)c1ccc(COc2ccc(-c3cccc(OC(F)(F)F)c3)cc2/C=C/C(=O)O)cc1 [Compound 70, (E)-3-{4-[4-(tert-butyl)benzyloxy]-3′-(trifluoromethoxy)biphenyl-3-yl}propenoic acid] | 38 | 72 | 93 | 
CC(C)(C)c1ccc(COc2ccc(-c3cccc(OC(F)(F)F)c3)cc2CCC(=O)O)cc1 [Compound 71, 3-{4-[4-(tert-butyl)benzyloxy]-3′-(trifluoromethoxy)biphenyl-3-yl}propanoic acid] | 49 | 74 | 95 | 
CC(C)(C)c1ccc(COc2ccc(-c3ccccc3OC(F)(F)F)cc2/C=C/C(=O)O)cc1 [Compound 72, (E)-3-{4-[4-(tert-butyl)benzyloxy]-2′-(trifluoromethoxy)biphenyl-3-yl}propenoic acid] | 42 | 72 | 93 | 
CC(C)(C)c1ccc(COc2ccc(-c3ccccc3OC(F)(F)F)cc2CCC(=O)O)cc1 [Compound 73, 3-{4-[4-(tert-butyl)benzyloxy]-2′-(trifluoromethoxy)biphenyl-3-yl}propanoic acid] | 52 | 80 | >99 | 
CC(C)(C)c1ccc(-c2ccc(OCc3ccccc3OC(F)(F)F)c(CCC(=O)O)c2)cc1 [Compound 74, 3-{4′-(tert-butyl)-4-[2-(trifluoromethoxy)benzyloxy]biphenyl-3-yl}propanoic acid] | 37 | 70 | 94 | 
CC(C)(C)c1ccc(-c2ccc(OCc3cccc(OC(F)(F)F)c3)c(CCC(=O)O)c2)cc1 [Compound 75, 3-{4′-(tert-butyl)-4-[3-(trifluoromethoxy)benzyloxy]biphenyl-3-yl}propanoic acid] | 40 | 74 | 95 | 
CC(C)(C)c1ccc(-c2ccc(OCc3ccc(C(F)(F)F)cc3)c(CCC(=O)O)c2)cc1 [Compound 77, 3-{4′-(tert-butyl)-4-[4-(trifluoromethyl)benzyloxy]biphenyl-3-yl}propanoic acid] | 47 | 71 | 95 | 
CCCCc1ccc(COc2ccc(-c3ccc(C(C)(C)C)cc3)cc2CCC(=O)O)cc1 [Compound 78, 3-[4′-(tert-butyl)-4-(4-butylbenzyloxy)biphenyl-3-yl]propanoic acid] | 51 | 80 | 93 | 
